# Where two headings read alike, the source gives them in different places.
# Tests used:
# Cervix HeLa cells = experiment: Cell proliferation, 24 h drug exposure; assay type: cell-based, human; details: for effect on proliferation after shorter exposure: HeLa cells, 12 h exposure; for IC50: Cervix HeLa, 24 h, read-out: IC50 for proliferation cell rate; for TI ratio (3T3/ cancer cells): IC50 3T3 / IC50 HeLa; for TI ratio (H9C2/cancer cells): IC50 H9C2 / IC50 HeLa
# Procedure: (§1) All metastatic (breast MDA-MB231, MDA-MB468, cervix HeLa, prostate PC3, colorectal HCT116, COLO205, glioblastoma U373), low-metastatic (breast MCF-7) cancer and non-cancer (fibroblast 3T3, cardiomyocytes H9C2) cell lines (American Type Culture Collection, Rockville, MD, USA) used in this study were cultured in Petri dishes in 20 mL of Dulbecco’s Modified Eagle’s Medium (DMEM, Sigma, MO, USA) supplemented with 10% fetal bovine serum (Biowest, Mexico) and 10,000 U penicillin/streptomycin (Sigma-Aldrich, MO, USA). […] For growth and maintenance, cells were incubated in 5% CO2/95% air at 37°C and kept until 80–90% of confluence was reached. Then, cells were harvested, washed by centrifugation and resuspended in Krebs-Ringer buffer (KR, 125 mM NaCl, 5 mM KCl, 25 mM Hepes, 1 mM MgCl2, 1 mM KH2PO4, 1.4 mM CaCl2, pH 7.4) for further use. For experimentation, cancer cells (3–5 x 10^6 cells) were cultured in DMEM (with 25 mM glucose) for 24 h in the absence of drugs. Afterwards, old-medium was replaced with fresh DMEM medium (with 25 mM glucose) in the absence (control, non-treated cells) or in the presence of logarithmic concentrations of Aur and MA for 24 h more, under the same culture conditions described above. Viability of cultured cells was determined by the trypan blue exclusion assay. The protein concentration was determined by the Lowry method.
# For cell proliferation in the presence of drugs, cancer cells (20 x 10^3 cells/well) were grown in 96-well plates containing DMEM (Sigma-Aldrich) plus 10% bovine fetal serum for 24 h. […] The effect of these drugs on cell proliferation was determined in 96-well plates by the MTT (3-[4,5-dimethyl-thiazol-2-yl]-2,5-diphenyltetrazolium bromide) assay. The viability of cancer cells was > 95% after treatment with drugs.
# 3T3 mouse fibroblasts = experiment: Cell proliferation, 24 h drug exposure (non cancer cells); assay type: cell-based; details: 3T3 mouse fibroblasts (non cancer), read-out: IC50 for proliferation cell rate
# Procedure: as §1
# (§2) For cell proliferation in the presence of drugs, cancer cells (20 x 10^3 cells/well) were grown in 96-well plates containing DMEM (Sigma-Aldrich) plus 10% bovine fetal serum for 24 h. Afterwards, Aur or MA (0.01, 0.1, 10 and 100 μM) were added to the cell cultures and incubated for additional 24 h. The effect of these drugs on cell proliferation was determined in 96-well plates by the MTT (3-[4,5-dimethyl-thiazol-2-yl]-2,5-diphenyltetrazolium bromide) assay. The viability of cancer cells was > 95% after treatment with drugs.
# [1] = tested on: H9C2 mouse cardiomyocytes; experiment: as above; assay type: cell-based; details: read-out: IC50 for proliferation cell rate
# Procedure: as §1, §2
# Rat Liver Mitochondria = experiment: Oxygen consumption of isolated mitochondria; assay type: biochemical; details: for Net State 3 oxygen consumption rate / Pseudo State 4 oxygen consumption rate / RC / State 3 oxygen consumption rate / State 4 oxygen consumption rate / RC, respiratory control: Rat Liver Mitochondria
# Procedure: Rat liver (RLM) and heart (RHM) mitochondria were isolated as described previously by differential centrifugation.
# Respiration of AS-30D, liver and heart mitochondria (1 mg protein/mL) was assayed oxygraphically with a Clark-type O2 electrode in KME (120 mM KCl, 20 mM Mops, 1 mM EGTA) buffer pH 7.2 plus 2 mM KH2PO4, and different oxidizable substrates (as indicated in Results). For state 3 respiration, 600 nmol ADP were added. Mitochondria were incubated at 37°C with Aur and MA for 30–60 s before substrates were added. At the end of each respiratory measurement, dithionite was added to get the chemical zero oxygen signal.
# Isolated mitochondria (1mg protein/mL) were incubated in KME buffer (120 mM KCl, 20 mM MOPS, 1 mM EGTA) pH 7.20 plus 2 mM KH2PO4 and the indicated oxidizable substrates. For state 3 (ADP-stimulated) respiration, 300-600 nmol ADP were added. RC, respiratory control; n=3. To get the maximal reduction of molecular oxygen (zero oxygen concentration), sodium dithionite (Na2O4S2) was added at the end of each measurement.
# [2] = tested on: HeLa, MDA-MB-231 and MDA-MB-468 cells; experiment: Energy metabolism pathway fluxes in intact cancer cells, pooled; assay type: cell-based, human; details: 24 h
# Procedure: For glycolysis flux, cells (3 mg protein/mL) were incubated in KR buffer. Glycolysis was started by adding 5 mM external glucose (Sigma-Aldrich, MO, USA), and cellular samples were withdrawn after 0 and 10 min of incubation at 37°C under smooth orbital shaking. At the indicated times, the cells were rapidly mixed with 3% (w/v) ice-cold perchloric acid and centrifuged. The supernatants were neutralized with 1N KOH/100mM Tris. To rule out lactate production by glutaminolysis, cells were also incubated with 10 mM 2-deoxyglucose (Sigma-Aldrich, MO, USA). Lactate was determined by a standard method with lactate dehydrogenase (Roche, Mannheim, Germany) following the NADH formation at 340 nm.
# For oxidative phosphorylation (OxPhos) flux, cells (2–5 mg protein/mL) were incubated at 37°C in air saturated KR medium plus 5 mM glucose. […] The net OxPhos rate was determined by using a Clark type electrode, as previously described and by using a high-resolution respirometer (Oroboros Instruments, Innsbruck, Austria) at 37°C. The contribution of OxPhos and glycolysis to the cellular ATP supply was determined, respectively, from the net OxPhos rate (oligomycin-sensitive respiration) multiplied by the ATP/O or P»/O2 ratio that corresponds to 2.5 or 5, and from the rate of lactate production, assuming a stoichiometry of 1 mol of ATP produced per 1 mol of lactate produced.
# [3] = 5 mM Glutamate/5 mM Malate, 10 μM MA
# [4] = 5 mM Glutamate/5 mM Malate, 50 μM MA
# [5] = 5 mM Glutamate/5 mM Malate, 10 μM Aur
# [6] = 5 mM Glutamate/5 mM Malate, 25 μM Aur
# [7] = 5 mM Glutamate/5 mM Malate, 50 μM Aur
# [8] = 5 mM Glutamate/5 mM Malate, 100 μM Aur
# [9] = Succinate 0.5 mM + Rotenone 2 µM, 10 µM Aur
# [10] = Succinate 0.5 mM + Rotenone 2 µM, 25 µM Aur
# [11] = Succinate 0.5 mM + Rotenone 2 µM, 50 µM Aur
# [12] = Succinate 0.5 mM + Rotenone 2 µM, 100 µM Aur
compound,measurement,setting,value
"Cc1ccc(Cl)c(Nc2ccccc2C(=O)O)c1Cl [MA, Meclofenamic acid]",effect on proliferation after shorter exposure,Cervix HeLa cells,< 15%
same,IC50,Cervix HeLa cells; Homo sapiens,6 ± 3 µM
same,TI ratio (3T3/ cancer cells),Cervix HeLa cells,17
same,TI ratio (H9C2/cancer cells),Cervix HeLa cells,17
same,IC50,3T3 mouse fibroblasts; Fibroblast,> 100 µM
same,IC50,[1],> 100 µM
same,Net State 3 oxygen consumption rate,Rat Liver Mitochondria; [3],81 (1)
same,Pseudo State 4 oxygen consumption rate,Rat Liver Mitochondria; [3],32.5 (1)
same,RC,Rat Liver Mitochondria; [3],8.6 (1)
same,State 3 oxygen consumption rate,Rat Liver Mitochondria; [3],113.5 (1)
same,State 4 oxygen consumption rate,Rat Liver Mitochondria; [3],13.5 (1)
same,Net State 3 oxygen consumption rate,Rat Liver Mitochondria; [4],61 ± 27
same,Pseudo State 4 oxygen consumption rate,Rat Liver Mitochondria; [4],42 ± 15 (3)
same,RC,Rat Liver Mitochondria; [4],2.1 ± 0.2 (3)
same,State 3 oxygen consumption rate,Rat Liver Mitochondria; [4],102 ± 23 (3)
same,State 4 oxygen consumption rate,Rat Liver Mitochondria; [4],50 ± 17 (3)
same,inhibition of OxPhos flux,[2]; MA 6–50 μM (Table 2),31–66%
"CC(=O)OC[C@H]1O[C@@H]([S-])[C@H](OC(C)=O)[C@@H](OC(C)=O)[C@@H]1OC(C)=O.CCP(CC)CC.[Au+] [Aur, [1-(thio-κS)-β-D-glucopyranose-2,3,4,6-tetraacetyl] (triethylphosphine)-gold]",IC50,Cervix HeLa cells,1.7 ± 0.4 µM
same,effect on proliferation after shorter exposure,Cervix HeLa cells,< 15%
same,TI ratio (3T3/ cancer cells),Cervix HeLa cells,25
same,TI ratio (H9C2/cancer cells),Cervix HeLa cells,46
same,IC50,3T3 mouse fibroblasts,42 ± 17 µM
same,IC50,[1],78 ± 15 µM
same,inhibition of state 3 respiration rates,Rat Liver Mitochondria; RLM,20–54%
same,increase of state 4 respiration rates (times),"Rat Liver Mitochondria; RLM, GM",1.8–1.9 times
same,Net State 3 oxygen consumption rate,Rat Liver Mitochondria; [5],123.5 ± 59 nmol O2 min^-1 mg protein^-1
same,Pseudo State 4 oxygen consumption rate,Rat Liver Mitochondria; [5],27.5 ± 3 nmol O2 min^-1 mg protein^-1
same,"RC, respiratory control",Rat Liver Mitochondria; [5],8 ± 1
same,State 3 oxygen consumption rate,Rat Liver Mitochondria; [5],151 ± 61.5 nmol O2 min^-1 mg protein^-1
same,State 4 oxygen consumption rate,Rat Liver Mitochondria; [5],18 ± 5 nmol O2 min^-1 mg protein^-1
same,Net State 3 oxygen consumption rate,Rat Liver Mitochondria; [6],62 nmol O2 min^-1 mg protein^-1
same,Pseudo State 4 oxygen consumption rate,Rat Liver Mitochondria; [6],27 (2) nmol O2 min^-1 mg protein^-1
same,"RC, respiratory control",Rat Liver Mitochondria; [6],6 (2)
same,State 3 oxygen consumption rate,Rat Liver Mitochondria; [6],89 (2) nmol O2 min^-1 mg protein^-1
same,State 4 oxygen consumption rate,Rat Liver Mitochondria; [6],15 (2) nmol O2 min^-1 mg protein^-1
same,Net State 3 oxygen consumption rate,Rat Liver Mitochondria; [7],48 nmol O2 min^-1 mg protein^-1
same,Pseudo State 4 oxygen consumption rate,Rat Liver Mitochondria; [7],30.5 (2) nmol O2 min^-1 mg protein^-1
same,"RC, respiratory control",Rat Liver Mitochondria; [7],5.5 (2)
same,State 3 oxygen consumption rate,Rat Liver Mitochondria; [7],78.5 (2) nmol O2 min^-1 mg protein^-1
same,State 4 oxygen consumption rate,Rat Liver Mitochondria; [7],16 (2) nmol O2 min^-1 mg protein^-1
same,Net State 3 oxygen consumption rate,Rat Liver Mitochondria; [8],25 nmol O2 min^-1 mg protein^-1
same,Pseudo State 4 oxygen consumption rate,Rat Liver Mitochondria; [8],48 (2) nmol O2 min^-1 mg protein^-1
same,"RC, respiratory control",Rat Liver Mitochondria; [8],3 (2)
same,State 3 oxygen consumption rate,Rat Liver Mitochondria; [8],73 (2) nmol O2 min^-1 mg protein^-1
same,State 4 oxygen consumption rate,Rat Liver Mitochondria; [8],26 (2) nmol O2 min^-1 mg protein^-1
same,Net State 3 oxygen consumption rate,Rat Liver Mitochondria; [9],116 (2)
same,Pseudo State 4 oxygen consumption rate,Rat Liver Mitochondria; [9],33 (2)
same,RC,Rat Liver Mitochondria; [9],5.4 (2)
same,State 3 oxygen consumption rate,Rat Liver Mitochondria; [9],150 (2)
same,State 4 oxygen consumption rate,Rat Liver Mitochondria; [9],68 (2)
same,Net State 3 oxygen consumption rate,Rat Liver Mitochondria; [10],88 (2)
same,Pseudo State 4 oxygen consumption rate,Rat Liver Mitochondria; [10],73 (2)
same,RC,Rat Liver Mitochondria; [10],4.8 (2)
same,State 3 oxygen consumption rate,Rat Liver Mitochondria; [10],161 (2)
same,State 4 oxygen consumption rate,Rat Liver Mitochondria; [10],39.5 (2)
same,Net State 3 oxygen consumption rate,Rat Liver Mitochondria; [11],36.5 (2)
same,Pseudo State 4 oxygen consumption rate,Rat Liver Mitochondria; [11],63.5 (2)
same,RC,Rat Liver Mitochondria; [11],2.3 (2)
same,State 3 oxygen consumption rate,Rat Liver Mitochondria; [11],95.5 (2)
same,State 4 oxygen consumption rate,Rat Liver Mitochondria; [11],40.5 (2)
same,Net State 3 oxygen consumption rate,Rat Liver Mitochondria; [12],20 (2)
same,Pseudo State 4 oxygen consumption rate,Rat Liver Mitochondria; [12],59 (2)
same,RC,Rat Liver Mitochondria; [12],2.5 (2)
same,State 3 oxygen consumption rate,Rat Liver Mitochondria; [12],64 (2)
same,State 4 oxygen consumption rate,Rat Liver Mitochondria; [12],56 (2)
same,inhibition of OxPhos and glycolysis fluxes,"[2]; HeLa and MDA-MB-231 cells, Aur at IC50",48–75%
